SMILES strings stand for the structures.

The target of experiment [1] is T1, ligand binding domain of the estrogen receptor alpha chain (ERαLBD) (Homo sapiens, UniProt P03372).
T1 construct: expressed in transfected cells; host or cells: Huh-7 human hepatoma cells, transient transfection with FuGENE 6
T1 sequence (P03372 311-547 limits assumed): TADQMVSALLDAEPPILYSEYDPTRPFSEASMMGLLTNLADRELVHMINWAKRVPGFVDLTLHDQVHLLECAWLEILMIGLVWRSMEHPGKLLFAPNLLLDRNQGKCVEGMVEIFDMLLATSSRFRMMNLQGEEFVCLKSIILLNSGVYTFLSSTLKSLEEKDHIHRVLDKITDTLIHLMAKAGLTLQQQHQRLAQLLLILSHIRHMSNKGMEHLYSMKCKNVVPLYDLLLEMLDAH
The experiment can be described thus: ER agonist cell assay (ERα), Huh-7 co-transfection, luciferase. The class given is cell-based. The following applies: for EC50: Huh-7 cells co-transfected with pG5luc and ERαLBD, overnight incubation, luciferase; for ERα % of Max E2 Response: percent of the maximum estradiol fold change, Huh-7, pG5luc and ERαLBD. The procedure:
(§1) The compounds ability to mimic the effects of estrogen on the estrogen receptor were determined in a whole cell assay as described immediately below.
(§2) Experimental Procedure for ER Agonist Cell Assay
(§3) • Cell line and plasmids: The human hepatoma cell line Huh-7 was used for co-transfections. Cells were maintained in culture medium and split when they reached 80-90% confluency. Three plasmids were routinely used in the assay. pG5luc contained the firefly luciferase gene and was obtained from Promega. […] Cell Culture Media and Reagents:
(§4) Culture medium: DMEM (phenol red free), 10% charcoal treated HyClone serum, 1% L-glutamine, and 1% penicillin/streptomycin
(§5) Transfection medium: DMEM (phenol red free) and 10% charcoal treated HyClone serum
(§6) Luciferase reagents: Dual-Glo Luciferase Kit (Promega cat #E2980) was used for determination of luciferase activity.
(§7) Transient transfections were preformed using the lipophilic reagent FuGENE 6 (Roche). Cells were split and seeded at 7.2×10^6/150 cm^2 flask in 20 mL of transfection medium. 5-6 hrs later cells were co-transfected with either pG5luc and ERαLBD or pG5luc and ERβLBD(pm418). Transfected cells grew overnight and were then used the next day.
(§8) Cells transfected 24 hrs earlier were harvested, counted, and seeded in wells containing compound at a density of 1×10^4 cells/well. […] Cells were incubated overnight at 37° C. and 5% CO2 in the presence of compound. The following day medium was aspirated from the wells and 100 ul of Dual-Glo™ Luciferase Reagent were added to each well. Plates were incubated at room temperature for 20 minutes and firefly luminescence was measured on a luminometer. Next, 50 ul of Dual-Gbo™ Stop & Glo® Reagent were added to each well and after 20 minutes at room temperature the Renilla luminescence was measured on a luminometer. Values from each well were normalized by dividing the firefly luminescence by the Renilla luminescence. Estradiol was used as the standard and run in each assay. The fold induction over background for each compound was compared to the maximum fold induction for estradiol in each assay. […] Those compounds that were not tested, or the data was unavailable are marked as NT.

Experiment [2] has as its target ligand binding domain of the estrogen receptor beta chain (ERβLBD) that contained a point mutation at amino acid residue 418 (pm418) (Homo sapiens, UniProt Q92731). The experiment in a line: ER agonist cell assay (ERβ), Huh-7 co-transfection, luciferase. The class given is cell-based. The following applies: for EC50: Huh-7 cells co-transfected with pG5luc and ERβLBD(pm418), overnight incubation, luciferase; for ERβ % of Max E2 Response: percent of the maximum estradiol fold change, Huh-7, pG5luc and ERβLBD(pm418). The method, then: as §1, §2, §3, §4, §5, §6, §7, §8

For orientation: EC50 means the concentration needed to bring the measured effect to its halfway point. High values mean lower potency in that assay, low ones higher potency in that assay. Regarding `Oc1ccc(-c2noc(C3(c4nnc(-c5ccccc5O)o4)CC3)c2-c2ccccc2)cc1` [Example 122, 2-(5-{1-[3-(4-hydroxyphenyl)-4-phenylisoxazol-5-yl]cyclopropyl}-1,3,4-oxadiazol-2-yl)phenol], in experiment [1], the concentration giving a half-maximal response (EC50) is 71.5 nM and the “ERα % of Max E2 Response” value is on record as 21.9%. Further, in experiment [2], the EC50 is greater than 10000 nM and the “ERβ % of Max E2 Response” value is listed as greater than 0.756%.
Regarding `CCCCOC(=O)C1(c2onc(-c3ccc(O)cc3)c2-c2ccccc2)CC1` [Example 94, 1-[3-(4-Hydroxy-phenyl)-4-phenyl-isoxazol-5-yl]-cyclopropanecarboxylic acid butyl ester], in experiment [1], a half-maximal response (EC50) required 29.3 nM and the “ERα % of Max E2 Response” value stood at 24.3%. Also, in experiment [2], the EC50 was greater than 10000 nM and the “ERβ % of Max E2 Response” value is given as greater than 0.800%.
The corresponding values for `CC(C)C(O)C1(c2onc(-c3ccc(O)cc3)c2-c2ccccc2)CC1` (racemic) [Example 17, (±)-4-{5-[1-(1-Hydroxy-2-methyl-propyl)-cyclopropyl]-4-phenyl-isoxazol-3-yl}-phenol] are 34.4 nM, 56.8%, 126 nM and 3.82%.
Take `Oc1ccc(-c2noc(C3(C(O)c4ccccc4)CC3)c2-c2ccccc2)cc1` (racemic) [Example 16, (±)-4-{5-[1-(Hydroxy-phenyl-methyl)-cyclopropyl]-4-phenyl-isoxazol-3-yl}-phenol]: in experiment [1], a half-maximal effect (EC50) was put at 44.3 nM and the “ERα % of Max E2 Response” value is on record as 63.2%. The “ERβ % of Max E2 Response” value in experiment [2] is given as 2.37%.
With `Cc1noc(C)c1C(=O)OCC1(c2onc(-c3ccc(O)cc3)c2-c2ccccc2)CC1` [Example 56], in experiment [1], the response was half-maximal at 11.1 nM (EC50) and the “ERα % of Max E2 Response” value is reported as 42.1%. Moreover, in experiment [2], the response was half-maximal at 30.6 nM (EC50) and the “ERβ % of Max E2 Response” value worked out at 3%.
Regarding `O=C(OCC1CCC1)C1(c2onc(-c3ccc(O)cc3)c2-c2ccccc2)CC1` [Example 95, 1-[3-(4-Hydroxy-phenyl)-4-phenyl-isoxazol-5-yl]-cyclopropanecarboxylic acid cyclobutylmethyl ester], in experiment [1], the EC50 came out at 13.6 nM and the “ERα % of Max E2 Response” value is listed as 21.5%. Besides, in experiment [2], the EC50 is greater than 10000 nM and the “ERβ % of Max E2 Response” value is given as greater than 0.728%.
For `CCOC(=O)C1(c2onc(-c3ccc(O)c(F)c3)c2-c2ccccc2)CC1` [Example 97, 1-[3-(3-Fluoro-4-hydroxy-phenyl)-4-phenyl-isoxazol-5-yl]-cyclopropanecarboxylic acid ethyl ester], the “ERα % of Max E2 Response” value in experiment [1] came to 19.7%. The “ERβ % of Max E2 Response” value in experiment [2] amounted to 1.08%.
Regarding `CC(=O)SCC1(c2onc(-c3ccc(O)cc3)c2-c2ccccc2)CC1` [Example 37, Thioacetic acid S-{1-[3-(4-hydroxy-phenyl)-4-phenyl-isoxazol-5-yl]-cyclopropylmethyl} ester], in experiment [1], a half-maximal response (EC50) required 202 nM and the “ERα % of Max E2 Response” value amounted to 30.7%. For the same compound, in experiment [2], the concentration giving a half-maximal response (EC50) was 302 nM and the “ERβ % of Max E2 Response” value was 4.3%.
The corresponding values for `N#CCC1(c2onc(-c3ccc(O)cc3)c2-c2ccccc2)CC1` [Example 42, {1-[3-(4-Hydroxy-phenyl)-4-phenyl-isoxazol-5-yl]-cyclopropyl}-acetonitrile] are 37.7 nM, 51.7%, 198 nM and 6.17%.
The matching figures for `CC(C)CC(=O)OCC1(c2onc(-c3ccc(O)cc3)c2-c2ccccc2)CC1` [Example 55]: 5.7 nM, 55.8%, 23.6 nM and 32.6%.
The corresponding values for `COCCOC(=O)C1(c2onc(-c3ccc(O)cc3)c2-c2ccccc2)CC1` [Example 88, 1-[3-(4-Hydroxy-phenyl)-4-phenyl-isoxazol-5-yl]-cyclopropanecarboxylic acid 2-methoxy-ethyl ester] are 29.4 nM, 29.2%, greater than 10000 nM and greater than 3.41%.
Take `Oc1ccc(-c2noc(C3(c4nnc(-c5ccc(O)cc5O)o4)CC3)c2-c2ccccc2)cc1` [Example 118, 4-(5-{1-[3-(4-hydroxyphenyl)-4-phenylisoxazol-5-yl]cyclopropyl}-1,3,4-oxadiazol-2-yl)benzene-1,3-diol]: in experiment [1], the EC50 was found to be 25.1 nM and the “ERα % of Max E2 Response” value is 15%. In experiment [2], the concentration for a half-maximal effect (EC50) is greater than 10000 nM and the “ERβ % of Max E2 Response” value is listed as greater than 0.789%.
As for `COc1ncccc1OCC1(c2onc(-c3ccc(O)cc3)c2-c2ccccc2)CC1` [Example 13, 4-{5-[1-(2-Methoxy-pyridin-3-yloxymethyl)-cyclopropyl]-4-phenyl-isoxazol-3-yl}-phenol], in experiment [1], the “ERα % of Max E2 Response” value came out at 19%. The “ERβ % of Max E2 Response” value in experiment [2] is listed as 0.552%.
For the compound `Oc1ccc(-c2nnc(C3(c4onc(-c5ccc(O)cc5)c4-c4ccccc4)CC3)o2)cc1` [Example 124, 4-(5-{1-[5-(4-hydroxyphenyl)-1,3,4-oxadiazol-2-yl]cyclopropyl}-4-phenylisoxazol-3-yl)phenol], in experiment [1], a half-maximal response (EC50) required 152 nM and the “ERα % of Max E2 Response” value is 24.4%. In experiment [2], the concentration for a half-maximal effect (EC50) was greater than 10000 nM and the “ERβ % of Max E2 Response” value is on record as greater than 0.539%.
The corresponding values for `COc1cccc(F)c1OCC1(c2onc(-c3ccc(O)cc3)c2-c2ccccc2)CC1` [Example 7, 4-{5-[1-(2-Fluoro-6-methoxy-phenoxymethyl)-cyclopropyl]-4-phenyl-isoxazol-3-yl}-phenol] are 208 nM, 17.2%, greater than 10000 nM and greater than 0.485%.
The corresponding values for `CC(C)C(C)NCC1(c2onc(-c3ccc(O)cc3)c2-c2ccccc2)CC1` (racemic) [Example 24, (±)-4-(5-{1-[(1,2-Dimethyl-propylamino)-methyl]-cyclopropyl}-4-phenyl-isoxazol-3-yl)-phenol] are 12.6 nM, 30.9%, greater than 10000 nM and greater than 0.860%.
The matching figures for `CC(C)OCC1(c2onc(-c3ccc(O)cc3)c2-c2ccccc2)CC1` [Example 3, 4-[5-(1-Isopropoxymethyl-cyclopropyl)-4-phenyl-isoxazol-3-yl]-phenol]: 97.1 nM, 32.2%, 568 nM and 1.32%.
Consider `CCC(=O)OCC1(c2onc(-c3ccc(O)cc3)c2-c2ccccc2)CC1` [Example 57], for which, in experiment [1], the EC50 worked out at 245 nM and the “ERα % of Max E2 Response” value was determined as 71.9%. In experiment [2], a half-maximal response (EC50) required 137 nM and the “ERβ % of Max E2 Response” value stood at 112%.
The corresponding values for `COCC1(c2onc(-c3ccc(O)cc3)c2-c2ccccc2)CC1` [Example 8, 4-[5-(1-Methoxymethyl-cyclopropyl)-4-phenyl-isoxazol-3-yl]-phenol] are 25.8 nM, 40.4%, 68.8 nM and 3.65%.
For `CC[C@@H](NCC1(c2onc(-c3ccc(O)cc3)c2-c2ccccc2)CC1)c1ccccc1` [Example 26, 4-[4-Phenyl-5-(1-{[(1R)-1-phenyl-propylamino]-methyl}-cyclopropyl)-isoxazol-3-yl]-phenol], in experiment [1], the EC50 amounted to 66 nM and the “ERα % of Max E2 Response” value amounted to 20.9%. Also, the “ERβ % of Max E2 Response” value in experiment [2] is 1.03%.
As to `Oc1ccc(-c2noc(C3(COCC(F)(F)F)CC3)c2-c2ccccc2)cc1` [Example 11, 4-{4-Phenyl-5-[1-(2,2,2-trifluoro-ethoxymethyl)-cyclopropyl]-isoxazol-3-yl}-phenol], in experiment [1], the EC50 came to 171 nM and the “ERα % of Max E2 Response” value was found to be 23.4%. In addition, in experiment [2], a half-maximal effect (EC50) was put at 14.7 nM and the “ERβ % of Max E2 Response” value is given as 1.98%.
